The results in this text go back to US9845326B2, “Substituted 3,4-dihydropyrrolo[1,2-A]pyrazines as beta-secretase (BACE) inhibitors” (priority 2011, dated 2017).

The test system of assay [1] is Aβtotal. Description: Cellular αlisa assay in SKNBE2 cells, Aβtotal. In kind it is cell-based, human. To be noted: SKNBE2 cells expressing hAPP695, 18 hours incubation; for IC50: Homo sapiens, SKNBE2, 18 h, read-out: Cellular αlisa assay in SKNBE2 cells Aβtotal pIC50 (converted). Here is the method: (§1) In two αlisa assays the levels of Aβtotal and Aβ42 produced and secreted into the medium of human neuroblastoma SKNBE2 cells are quantified. The assay is based on the human neuroblastoma SKNBE2 expressing the wild type Amyloid Precursor Protein (hAPP695). The compounds are diluted and added to these cells, incubated for 18 hours and then measurements of Aβ42 and Aβtotal are taken. Aβtotal and Aβ42 are measured by sandwich αlisa. αlisa is a sandwich assay using biotinylated antibody AbN/25 attached to streptavidin coated beads and antibody Ab4G8 or cAb42/26 conjugated acceptor beads for the detection of Aβtotal and Aβ42 respectively. In the presence of Aβtotal or Aβ42, the beads come into close proximity. The excitation of the Donor beads provokes the release of singlet oxygen molecules that triggers a cascade of energy transfer in the Acceptor beads, resulting in light emission. Light emission is measured after 1 hour incubation (excitation at […] and emission at 615 nm).
(§2) From this an […] value (inhibitory concentration causing 50% inhibition of activity) can be obtained.

In assay [2] the target is BACE1 (Homo sapiens, UniProt P56817). Description: Biochemical FRET based assay. Conditions: Biochemical FRET based assay pIC50, recombinant BACE1 1 μg/ml, 120 min, room temperature, pH 5.0. The source says: This assay is a Fluorescence Resonance Energy Transfer Assay (FRET) based assay. The substrate for this assay is an APP derived 13 amino acids peptide that contains the ‘Swedish’ Lys-Met/Asn-Leu mutation of the amyloid precursor protein (APP) β-secretase cleavage site. This substrate also contains two fluorophores: (7-methoxy-coumarin-4-yl) acetic acid (Mca) is a fluorescent donor with excitation wavelength at 320 nm and emission at 405 nm and 2,4-Dinitrophenyl (Dnp) is a proprietary quencher acceptor. […] Upon cleavage by BACE1, the fluorophore Mca is separated from the quenching group Dnp, restoring the full fluorescence yield of the donor. The increase in fluorescence is linearly related to the rate of proteolysis (Koike H et al. J. Biochem. 1999, 126, 235-242).
Sequence of BACE1 (P56817 46-501): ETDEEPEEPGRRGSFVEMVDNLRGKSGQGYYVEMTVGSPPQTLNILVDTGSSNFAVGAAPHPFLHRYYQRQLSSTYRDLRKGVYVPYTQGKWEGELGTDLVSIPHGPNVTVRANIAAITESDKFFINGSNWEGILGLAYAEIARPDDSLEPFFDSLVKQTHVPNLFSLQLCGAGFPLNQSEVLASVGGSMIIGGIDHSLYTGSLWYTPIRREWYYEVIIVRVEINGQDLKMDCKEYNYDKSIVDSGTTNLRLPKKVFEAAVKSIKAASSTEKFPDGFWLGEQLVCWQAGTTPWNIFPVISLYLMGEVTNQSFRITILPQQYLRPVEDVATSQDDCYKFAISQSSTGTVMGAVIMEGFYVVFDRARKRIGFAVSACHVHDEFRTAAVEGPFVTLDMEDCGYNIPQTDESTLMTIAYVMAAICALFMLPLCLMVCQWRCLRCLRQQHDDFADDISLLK
Briefly in a 384-well format recombinant BACE1 protein in a final concentration of 1 μg/ml is incubated for 120 min at room temperature with 10 μm substrate in incubation buffer (40 mM Citrate buffer pH 5.0, 0.04% PEG, 4% DMSO) in the absence or presence of compound. Next the amount of proteolysis is directly measured by fluorescence measurement at T=0 and T=120 (excitation at 320 nm and emission at 405 nm). Results are expressed in RFU, as difference between T120 and T0
From this an IC50 value (inhibitory concentration causing 50% inhibition of activity) can be obtained.

Assay [3] has as its system Aβ42. Description: Cellular αlisa assay in SKNBE2 cells, Aβ42. In kind it is cell-based, human. Conditions: SKNBE2 cells expressing hAPP695, 18 hours incubation; for IC50: Homo sapiens, SKNBE2, 18 h, read-out: Cellular αlisa assay in SKNBE2 cells Aβ42 pIC50 (converted). Here is the method: as §1, §2

Consider `CC1(c2cccc(-c3cncnc3)c2)Cn2cccc2C(N)=N1` (racemic) [Compound 1, rac-3-methyl-3-(3-pyrimidin-5-yl-phenyl)-3,4-dihydro-pyrrolo[1,2-a]pyrazin-1-ylamine], for which the IC50 in assay [1] is 3890 nM; in assay [2], 12000 nM; in assay [3], 3980 nM.
For the molecule `CC1(c2cccc(-c3cc(Cl)cc(Cl)c3)c2)Cn2cccc2C(N)=N1` (racemic) [Compound 2, rac-3-(3′,5′-dichloro-biphenyl-3-yl)-3-methyl-3,4-dihydro-pyrrolo[1,2-a]pyrazin-1-ylamine], the figures for the IC50 in assay [1], in assay [2] and in assay [3] were 4270 nM, 3720 nM and 4470 nM, respectively.
For `CC1(c2cccc(NC(=O)c3ccc(Cl)cn3)c2)Cn2cccc2C(N)=N1` (racemic) [Compound 3, rac-5-chloro-pyridine-2-carboxylic acid[3-(1-amino-3-methyl-3,4-dihydro-pyrrolo[1,2-a]pyrazin-3-ye-phenyl]-amide] the same measures were 95.5 nM, 135 nM and 100 nM.
For `COc1cnc(C(=O)Nc2cccc(C3(C)Cn4cccc4C(N)=N3)c2)cn1` (racemic) [Compound 4, rac-5-methoxy-pyrazine-2-carboxylic acid [3-(1-amino-3-methyl-3,4-dihydro-pyrrolo[1,2-a]pyrazin-3-ye-phenyl]-amide] the same measures were 93.3 nM, 234 nM and 110 nM.
For `COc1cnc(C(=O)Nc2ccc(F)c(C3(C(F)F)Cn4cccc4C(N)=N3)c2)cn1` (racemic) [Compound 11] the same measures were 9.55 nM, 107 nM and 11 nM.
In the case of `COc1cnc(C(=O)Nc2ccc(F)c(C3(C(F)F)Cn4cccc4C(N)=N3)c2)cn1` (single isomer, unassigned) [Compound 12], the “Cellular αlisa assay in SKNBE2 cells Aβtotal pIC50” value in assay [1] is 7.9. Further, the IC50 in assay [2] is 37.2 nM. The “Cellular αlisa assay in SKNBE2 cells Aβ42 pIC50” value in assay [3] was 7.85.
In the same order, the values of `COc1cnc(C(=O)Nc2ccc(F)c(C3(C(F)F)Cn4cccc4C(N)=N3)c2)cn1` (single isomer, unassigned) [Compound 13] are 5.62, 18200 nM and 5.63.
For `COCC1(c2cc(NC(=O)c3ccn(C(F)F)n3)ccc2F)Cn2cc(C(F)(F)F)cc2C(N)=N1` (single isomer, unassigned) [Compound 31] the same measures were below 5, above 50100 nM and below 5.
In the same order, the values of `COCC1(c2cc(NC(=O)c3ccn(C(F)F)n3)ccc2F)Cn2cc(C(F)(F)F)cc2C(N)=N1` (single isomer, unassigned) [Compound 32] are 6.53, 1740 nM and 6.54.
`C[C@@]1(c2cc(NC(=O)c3ccc(Cl)cn3)ccc2F)Cn2cccc2C(N)=N1` [Compound 5, (R)-5-chloro-pyridine-2-carboxylic acid [3-(1-amino-3-methyl-3,4-dihydro-pyrrolo[1,2-a]pyrazin-3-yl)-4-fluoro-phenyl]-amide]: the values for the IC50 in assay [1], in assay [2] and in assay [3] were 2.82 nM, 37.2 nM and 2.95 nM, respectively.
For `COc1cnc(C(=O)Nc2ccc(F)c([C@]3(C)Cn4cc(F)cc4C(N)=N3)c2)cn1` [Compound 8, (R)-5-methoxy-pyrazine-2-carboxylic acid [3-(1-amino-7-fluoro-3-methyl-3,4-dihydro-pyrrolo[1,2-a]pyrazin-3-yl)-4-fluoro-phenyl]-amide] the same measures were 2.04 nM, 33.1 nM and 2.19 nM.
In the same order, the values of `C[C@@]1(c2cc(NC(=O)c3ccc(C#N)cn3)ccc2F)Cn2cc(C(F)(F)F)cc2C(N)=N1` [Compound 9] are 10.7 nM, 33.9 nM and 12 nM.
